From patent publication US20220036967A1, “A METHOD TO DETERMINE AGENTS FOR PERSONALIZED USE” (priority 2018, published 2022)

System: liver metastasis of a breast carcinoma
Test: treatment of the individual patient chosen according to the test results
Format: in vivo, human
Source text: Biopsy material of a liver metastasis of a breast carcinoma has been obtained from a patient.

Molecule | tumor marker CA15.3 after treatment (before treatment 22,230 units/ml, infused in two-weeks intervals according to standard protocols) | malignant ascites (infused in two-weeks intervals) | tumor markers in controls (100 mg)
CCc1c2c(nc3ccc(OC(=O)N4CCC(N5CCCCC5)CC4)cc13)-c1cc3c(c(=O)n1C2)COC(=O)[C@]3(O)CC [Irinotecan] | 1513 units | markedly reduced | 
Keytruda: PDL Antibody therapy |  |  | did not change tumor markers
